Data as given in US20110098177A1, “METHODS AND COMPOSITIONS OF PLANT MICRONUTRIENTS” (NOVUS INTERNATIONAL INC., priority 2006, published 2011).

Key:
Type in all cases: in vivo
Settings in all cases: in vivo
Tygress tomato plants [1] = experiment: Nutrient concentration of tomato fruits at 10 WAT, open field (Examples 7-10)
Method: (§1) The following experiments were performed in open-field plots during the spring of 2008 at GCREC, Balm, University of Florida. Four products delivering Zn (BIOX-Z), Mn (BIOX-M), Cu (BIOX-Cu), and Fe (BIOX-Fe) were compared to other micronutrient supplement formulations in tomato and bell pepper plants.
(§2) The plot sizes for the tomato plants were 30-ft plots (15 plants per plot) and 15-ft plots were used for the bell pepper plants (30 plants per plot). Crop set-up, procedures and variables were as follows.
(§3) Transplants of ‘Tygress’ tomato plants and ‘Patriot’ bell pepper plants in the 4-true leaf stage (about 6 inches tall) were planted in raised beds in open-field plots. The cross-section of each raised bed was 28 inches wide at the top, 32 inches wide at the base, and 8 inches tall. Irrigation and non-micronutrient fertilizer were provided daily through two drip lines per bed (0.45 gal/100 ft bed/min) at recommended rates for tomato and bell pepper production in Florida. […] The height of the plants for each of the treatment groups was measured at 3 weeks after transplantation (WAT), just prior to treatment with the experimental foliar fertilizers.
(§4) All foliar fertilizers except BIOX-CM were applied to the various treatment groups at 3 weeks after transplantation (WAT) and again at 5 WAT. The BIOX-CM treatment was applied at 4 and 5 WAT. The working water volume was 60 gal/acre and a non-ionic surfactant (Ad-Spray 80) was added in the amount of 2 pints/100 gal water. All plots were sprayed with sprayers pressurized at 25 psi and the canopies of both crops were covered with the micronutrient solutions. Treated plots were isolated during foliar fertilizer application to avoid the cross-contamination of other treatments on adjoining plots.
(§5) Leaf samples were collected from the most recent mature leaves from each plant at 6 WAT (2 weeks after initial treatment). Foliar tissue analysis was performed by a commercial laboratory to determine the concentration of N, P, K, Mg, Ca, B, Zn, Mn, Fe, and Cu. Tomato marketable fruit weights were collected at 10 and 12 WAT, and the fruits were graded according to USDA standards. Pepper marketable fruit weights were determined beginning at 5 WAT over 5 weekly harvests. Fruit mineral analysis (N, P, K, Mg, Ca, B, Zn, Mn, Fe, and Cu) was performed on samples from the tomato harvest.
(§6) The experimental design was a randomized complete block design with 5 replications for each treatment. All comparison data were analyzed using a general linear model and the means of each treatment were separated with a Fisher's protected LSD test at the 5% significance level.

[2] = tested on: Patriot bell pepper plants; experiment: Foliar nutrient concentration at 6 WAT, open-field bell pepper (Examples 7-10)
Method: as §1, §2, §3, §4, §5, §6

Tygress tomato plants [3] = experiment: Foliar nutrient concentration at 6 WAT, open-field tomato (Examples 7-10)
How it was run: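 Open-field Florida trial, spring 2008: transplants at 4-true-leaf stage on drip-irrigated raised beds were foliar-sprayed at 3 and 5 WAT (BIOX-CM at 4 and 5 WAT) at 60 gal/acre with non-ionic surfactant. Most recent mature leaves were sampled at 6 WAT. Tomato fruit was USDA-graded and analysed for minerals.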

Florida-47 tomato = tested on: Florida-47 tomato
Method: (§7) The following experiments were performed in a green house during the fall of 2007 at GCREC, Balm, University of Florida. Fifteen products, at 3 different application rates were examined. The plot size was 2-gallon pots. Crop set-up, procedures and variables were as follows.
(§8) Transplants of ‘Florida-47’ tomato and ‘Aristotle’ bell pepper plants in the 4-true leaf stage (about 6 inches tall) were planted in 2-gal pots on Aug. 27, 2007. Pots were filled with a commercially available planting medium. This medium was selected based on the mineral composition of the products to be applied without providing significant nutritional inputs to the crops. Irrigation was provided with drip lines delivering between 0.50 and 0.33 gal/day/pot for tomato and bell pepper, respectively, and the crops were irrigated three times per day. No foliar pesticides were necessary.
(§9) There were four control treatments corresponding to each target micronutrient in which non-Fe, non-Mn, non-Zn or non-Cu pots received all other essential nutrients under non-limiting conditions.
(§10) Treatments were applied at three rates (high, medium and low) obtained from the estimated concentration of Zn, Fe, Cu, and Mn foliarly-applied in tomato and bell pepper in field situations (Table 1). Products were weighed and dissolved in 200 ml of deionized water with a non-ionic surfactant and applied to the newly-matured open leaves of each crop at 3 and 7 weeks after transplant (WAT). Treated pots were isolated during application to avoid cross-contamination of other treatments.
(§11) Medium nutrient concentration was determined 1 week before treatment. The mineral composition of the medium was 26.8 ppm NH4—N, 49 ppm NO3—N, 15.8 ppm P, 91.2 ppm K, 82.3 ppm Ca, 58.2 ppm Mg, 23.9 ppm Na, 125.6 ppm S, 1.33 ppm Fe, 0.39 ppm Mn, 0.35 ppm Zn, 0.05 pp, Cu, 0.04 ppm B, 0 ppm Mo, 0.73 ppm Al, and 12.1 ppm Si. The pH of the medium was 5.36 and the electric conductivity was 1.38 mS/cm. The foliar tissue analysis was performed at 6 WAT and the concentration of N, P, K, Mg, Ca, S, B, Zn, Mn, Fe, and Cu was determined by a commercial laboratory. Plant toxicity was determined at 4 WAT by using a 0-10 visual scale, where 0=no visible damage and 10=total plant death. Marketable fruit weight was collected 2 times in bell pepper and 4 times in tomato following USDA standards.
(§12) Data were analyzed using a general linear model, and means were separated using orthogonal contrasts at the 5% significance level.

Aristotle bell pepper = tested on: Aristotle bell pepper
Method: as §7, §8, §9, §10, §11, §12

Tygress tomato plants [4] = experiment: Yields of tomato fruits, greenhouse (Examples 4-6)
Method: (§13) The following experiments were performed in a green house during the fall of 2008 and spring of 2009 at GCREC, Balm, University of Florida. Crop set-up, procedures and variables were as follows.
(§14) Transplants of Tygress' tomato plants were planted in 2-gallon pots filled with commercial planting medium with nutrient concentration of Fe, Zn, Mn, Cu being negligible and insufficient for crop growth. Irrigation and non-micronutrient fertilizer were provided daily through microsprinklers at recommended rates for tomato production in Florida. No pesticides were used. Treatments were as described in Tables 4, 5 and 6 below.
(§15) Treatments were applied at 5 WAT (weeks after transplanting) using a water volume of 200 mL/plant. A non-ionic surfactant was added. Foliar tissue analysis was performed at 3 and 7 WAT on the non-applied newest leaves. The concentrations of N, P, K, Mg, Ca, B, Zn, Mn, Fe, and Cu in the foliar tissue were determined from foliar analysis by a commercial laboratory at 2 weeks before treatment and again at 2 weeks after treatment.
(§16) Deionized water was used for foliar applications, and other nutrients were applied as appropriate under non-limiting conditions. Marketable fruit were collected three times during the growing season, starting at 10 WAT (5 weeks after the initial treatment). Tomato fruit was graded as extra-large, large and medium. Non-marketable fruit were harvested and number and weight recorded but not sized.
(§17) Experimental design was a randomized complete block design with 6 replications. Data were analyzed using a general linear model, and means were separated using an LSD test at the 5% significance level.

Tygress tomato plants [5] = experiment: Marketable yield, open-field tomato (Examples 7-10)
Method: as §1, §2, §3, §4, §5, §6

Tygress tomato plants [6] = experiment: Foliar nutrient concentration 2 weeks after treatment, greenhouse tomato (Examples 4-6)
Method: as §13, §14, §15, §16, §17

[7] = tested on: Patriot bell pepper plants; experiment: Marketable yield, open-field bell pepper (Examples 7-10)
Method: as §1, §2, §3, §4, §5, §6

## O=S(=O)([O-])[O-].[Zn+2] [BIOX-INZ, zinc sulfate]
Tygress tomato plants [1]
  B concentration of tomato fruits: 21 ppm
  Cu concentration of tomato fruits: 21 ppm
  Fe concentration of tomato fruits: 85 ppm
  K concentration of tomato fruits: 7.5%
  Mg concentration of tomato fruits: 0.34%
  Mn concentration of tomato fruits: 38 ppm
  N concentration of tomato fruits: 4.2%
  P concentration of tomato fruits: 0.59%
  Zn concentration of tomato fruits: 496 ppm
[2]
  Foliar B concentration of bell pepper plants: 57 ppm
  Foliar Cu concentration of bell pepper plants: 385 ppm
  Foliar Fe concentration of bell pepper plants: 116 ppm
  Foliar K concentration of bell pepper plants: 3.2%
  Foliar Mg concentration of bell pepper plants: 0.53%
  Foliar Mn concentration of bell pepper plants: 303 ppm
  Foliar N concentration of bell pepper plants: 3.9%
  Foliar P concentration of bell pepper plants: 0.22%
  Foliar Zn concentration of bell pepper plants: 64 b ppm
Tygress tomato plants [3]
  Foliar B concentration of tomato plants: 41 ppm
  Foliar Cu concentration of tomato plants: 358 ppm
  Foliar Fe concentration of tomato plants: 71 ppm
  Foliar K concentration of tomato plants: 5.7%
  Foliar Mg concentration of tomato plants: 0.58%
  Foliar Mn concentration of tomato plants: 231 ppm
  Foliar N concentration of tomato plants: 4.8%
  Foliar P concentration of tomato plants: 0.18%
  Foliar Zn concentration of tomato plants: 323 ab ppm
  Foliar Zn concentration of tomato plants, statement: highest foliar concentration of Zn
Florida-47 tomato
  Tomato toxicity: 0
Aristotle bell pepper
  Pepper toxicity: 0
Tygress tomato plants [4]
  Marketable yield: 3.7 a lb/plant
Tygress tomato plants [5]
  Marketable yield, Tomato: 15.6 ton/acre
Tygress tomato plants [6]
  B concentration in tomato leaves: 24 ppm
  Cu concentration in tomato leaves: 5 ppm
  Fe concentration in tomato leaves: 97 ppm
  Foliar Zn concentration: 768 a ppm
  K concentration in tomato leaves: 3.5%
  Mg concentration in tomato leaves: 0.3%
  Mn concentration in tomato leaves: 55 ppm
  N concentration in tomato leaves: 3.6%
  P concentration in tomato leaves: 0.4%
[7]
  Marketable yield, Bell Pepper: 6.9 ton/acre
